Data taken from patent US6355799B1, “Substituted benzene compounds, process for their preparation, and herbicidal and defoliant compositions containing them” (ISK Americas Incorporated, priority 1997, dated 2002).

How the values were obtained:
Assay type in all cases: in vivo
[1] = tested on: velvetleaf (Abutilon theophrasti, ABUTH); test: Post-emerge test, greenhouse herbicide activity screening; conditions: post-emerge, phytotoxicity rating 0-100 at 14 days after application
Source text: (§1) A standard greenhouse herbicide activity screening system was used to evaluate the herbicidal efficacy and crop safety of these test compounds. Seven broadleaf weed species including redroot pigweed (Amaranthus retroflexus, AMARE, velvetleaf (Abutilon theophrasti, ABUTH), sicklepod (Cassia obtusifolia, CASOB), ivyleaf morningglory (Ipomoea hederacea, IPOHE), lambsquarters (Chenopodium album, CHEAL), common ragweed (Ambrosia artemisizfolia L., AMBEL), and cocklebur (Xanthium strumarium, XANST) were used as test species. Four grass weed species including green foxtail (Setaria viridis, SETVI), barnyardgrass (Echinochloa crus-galli, ECHCG), johnsongrass (Sorghum halepense, SORHA), and large crabgrass (Digitaria sanguinalis, DIGSA) were also used. In addition, three crop species, field corn (Zea mays L., var. Dekalb 535, CORN), soybean (Glycine max L., var. Pella 86, SOY), and is upland rice (Oryza sp., var. Tebonnet, RICE) were included.
(§2) All plants were grown in 10 cm square plastic pots which were filled with a sandy loam soil mix. For pre-emerge tests, seeds were planted one day prior to application of the test compounds. For post-emerge tests, seeds were planted 8-21 days prior to the test to allow emergence and good foliage development prior to application of the test substances. At the time of the post-emerge application, plants of all species were usually at the 2-3 leaf stage of development.
(§3) All test compounds Were dissolved in acetone and applied to the test units in a volume of 187 l /ha. Test materials were applied at rates ranging from 15 g ai/ha to 1000 g ai/ha using a track sprayer equipped with a TJ8001E even flow flat fan spray nozzle. Plants were arranged on a shelf so that the top of the canopy (post-emerge) or top of the soil surface (pre-emerge) was 40-45 cm below the nozzle. Pressurized air was used to force the test solution through the nozzle as it was mechanically advanced (via electrically driven chain drive) over the top of all test plants/pots. This application simulates a typical commercial field herbicide application.
(§4) In the post-emerge test, a commercial non-ionic surfactant was also included (0.25% v/v) to enhance wetting of the leaf surfaces of target plants. Immediately after application, test units of the pre-emerge applications were watered at the soil surface to incorporate the test materials. Subsequently, these test units were bottom-watered. Post-emerge test units were always bottom-watered.
(§5) At 14 days after application of the test materials, phytotoxicity ratings were recorded. A rating scale of 0-100 was used as previously described in Research Methods in Weed Science, 2nd edition, B. Truelove, Ed., Southern Weed Science Society, Auburn University, Auburn, Ala. 1977. Briefly, “0” corresponds to no damage and “100” corresponds to complete death of all plants in the test unit. This scale was used both to determine efficacy against weed species and damage to crop species. Herbicide activity data for various compounds of this invention, which are shown by compound No. in Tables 1-8, are shown in Tables 11 and 12.

[2] = tested on: lambsquarters (Chenopodium album, CHEAL); test: as above; conditions: post-emerge, phytotoxicity rating 0-100 at 14 days after application
Source text: as §1, §2, §3, §4, §5

[3] = tested on: sicklepod (Cassia obtusifolia, CASOB); test: as above; conditions: post-emerge, phytotoxicity rating 0-100 at 14 days after application
Source text: as §1, §2, §3, §4, §5

[4] = tested on: large crabgrass (Digitaria sanguinalis, DIGSA); test: as above; conditions: post-emerge, phytotoxicity rating 0-100 at 14 days after application
Source text: as §1, §2, §3, §4, §5

[5] = tested on: redroot pigweed (Amaranthus retroflexus, AMARE); test: as above; conditions: post-emerge, phytotoxicity rating 0-100 at 14 days after application
Source text: as §1, §2, §3, §4, §5

[6] = tested on: ivyleaf morningglory (Ipomoea hederacea, IPOHE); test: as above; conditions: post-emerge, phytotoxicity rating 0-100 at 14 days after application
Source text: as §1, §2, §3, §4, §5

[7] = tested on: green foxtail (Setaria viridis, SETVI); test: as above; conditions: post-emerge, phytotoxicity rating 0-100 at 14 days after application
Source text: as §1, §2, §3, §4, §5

[8] = tested on: barnyardgrass (Echinochloa crus-galli, ECHCG); test: as above; conditions: post-emerge, phytotoxicity rating 0-100 at 14 days after application
Source text: as §1, §2, §3, §4, §5

[9] = tested on: redroot pigweed (Amaranthus retroflexus, AMARE); test: Pre-emerge test, greenhouse herbicide activity screening; conditions: rating scale 0-100, 14 days after application
Procedure, shortened: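 Sandy loam pots; pre-emerge: sown 1 d pre-spray, surface-watered after, then bottom-watered. Post-emerge: sown 8–21 d before, 2–3 leaf stage, + 0.25% v/v NIS, bottom-watered. Acetone, 187 l/ha track spray, 15–1000 g ai/ha. 0–100 injury score, day 14.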

[10] = tested on: upland rice (Oryza sp., var. Tebonnet, RICE); test: Pre-emerge test, crop safety; conditions: rating scale 0-100, 14 days after application
Procedure, shortened: (§6)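 Compounds in acetone were track-sprayed at 15-1000 g ai/ha (187 l/ha) on sandy loam pots: pre-emerge one day after seeding, post-emerge at 2-3 leaf stage with 0.25% v/v non-ionic surfactant. Phytotoxicity was rated 14 days later on a 0 (no damage) to 100 (complete death) scale.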

[11] = tested on: field corn (Zea mays L., var. Dekalb 535, CORN); test: Pre-emerge test, crop safety; conditions: rating scale 0-100, 14 days after application
Procedure, shortened: as §6

[12] = tested on: velvetleaf (Abutilon theophrasti, ABUTH); test: Pre-emerge test, greenhouse herbicide activity screening; conditions: rating scale 0-100, 14 days after application
Source text: as §1, §2, §3, §4, §5

[13] = tested on: lambsquarters (Chenopodium album, CHEAL); test: as above; conditions: rating scale 0-100, 14 days after application
Source text: as §1, §2, §3, §4, §5

[14] = tested on: sicklepod (Cassia obtusifolia, CASOB); test: as above; conditions: rating scale 0-100, 14 days after application
Source text: as §1, §2, §3, §4, §5

[15] = tested on: large crabgrass (Digitaria sanguinalis, DIGSA); test: as above; conditions: rating scale 0-100, 14 days after application
Source text: as §1, §2, §3, §4, §5

[16] = tested on: ivyleaf morningglory (Ipomoea hederacea, IPOHE); test: as above; conditions: rating scale 0-100, 14 days after application
Source text: as §1, §2, §3, §4, §5

[17] = tested on: green foxtail (Setaria viridis, SETVI); test: as above; conditions: rating scale 0-100, 14 days after application
Source text: as §1, §2, §3, §4, §5

[18] = tested on: barnyardgrass (Echinochloa crus-galli, ECHCG); test: as above; conditions: rating scale 0-100, 14 days after application
Source text: as §1, §2, §3, §4, §5

[19] = tested on: upland rice (Oryza sp., var. Tebonnet, RICE); test: Post-emerge test, crop safety; conditions: post-emerge, crop damage rating 0-100 at 14 days after application
Procedure, shortened: (§7)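 Each test used a mechanized track sprayer delivering 187 l/ha of acetone solution at 15–1000 g ai/ha. Post-emerge foliage at 2–3 leaves was treated with added 0.25% v/v non-ionic surfactant and bottom-watered only. Injury was assessed on day 14, where 100 means total kill.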

[20] = tested on: field corn (Zea mays L., var. Dekalb 535, CORN); test: Post-emerge test, crop safety; conditions: post-emerge, crop damage rating 0-100 at 14 days after application
Procedure, shortened: as §7

Structure (SMILES): COc1c(Cl)cc(F)c(N2C(=O)C3CCCCN3C2=S)c1NC(=O)c1ccc2ccccc2c1 (stereo not shown) [12-5]
- Post-emerge Herbicidal Activity ABUTH ([1]; 63 g ai/ha): 100
- Post-emerge Herbicidal Activity ABUTH ([1]; 250 g ai/ha): 100
- Post-emerge Herbicidal Activity CHEAL ([2]; 63 g ai/ha): 100
- Post-emerge Herbicidal Activity CHEAL ([2]; 250 g ai/ha): 99
- Post-emerge Herbicidal Activity CASOB ([3]; 63 g ai/ha): 40
- Post-emerge Herbicidal Activity CASOB ([3]; 250 g ai/ha): 60
- Post-emerge Herbicidal Activity DIGSA ([4]; 63 g ai/ha): 0
- Post-emerge Herbicidal Activity DIGSA ([4]; 250 g ai/ha): 10
- Post-emerge Herbicidal Activity AMARE ([5]; 63 g ai/ha): 70
- Post-emerge Herbicidal Activity AMARE ([5]; 250 g ai/ha): 85
- Post-emerge Herbicidal Activity IPOHE ([6]; 63 g ai/ha): 100
- Post-emerge Herbicidal Activity IPOHE ([6]; 250 g ai/ha): 99
- Post-emerge Herbicidal Activity SETVI ([7]; 63 g ai/ha): 20
- Post-emerge Herbicidal Activity SETVI ([7]; 250 g ai/ha): 10
- Post-emerge Herbicidal Activity ECHCG ([8]; 63 g ai/ha): 10
- Post-emerge Herbicidal Activity ECHCG ([8]; 250 g ai/ha): 10
- Pre-emerge herbicidal activity, phytotoxicity rating AMARE ([9]; 63 g ai/ha): 30
- Pre-emerge herbicidal activity, phytotoxicity rating AMARE ([9]; 250 g ai/ha): 100
- Pre-emerge phytotoxicity rating, crop damage RICE ([10]; 63 g ai/ha): 0
- Pre-emerge phytotoxicity rating, crop damage RICE ([10]; 250 g ai/ha): 10
- Pre-emerge phytotoxicity rating, crop damage CORN ([11]; 63 g ai/ha): 0
- Pre-emerge phytotoxicity rating, crop damage CORN ([11]; 250 g ai/ha): 0
- Pre-emerge herbicidal activity, phytotoxicity rating ABUTH ([12]; 63 g ai/ha): 70
- Pre-emerge herbicidal activity, phytotoxicity rating ABUTH ([12]; 250 g ai/ha): 90
- Pre-emerge herbicidal activity, phytotoxicity rating CHEAL ([13]; 63 g ai/ha): 90
- Pre-emerge herbicidal activity, phytotoxicity rating CHEAL ([13]; 250 g ai/ha): 100
- Pre-emerge herbicidal activity, phytotoxicity rating CASOB ([14]; 63 g ai/ha): 0
- Pre-emerge herbicidal activity, phytotoxicity rating CASOB ([14]; 250 g ai/ha): 80
- Pre-emerge herbicidal activity, phytotoxicity rating DIGSA ([15]; 63 g ai/ha): 0
- Pre-emerge herbicidal activity, phytotoxicity rating DIGSA ([15]; 250 g ai/ha): 10
- Pre-emerge herbicidal activity, phytotoxicity rating IPOHE ([16]; 63 g ai/ha): 0
- Pre-emerge herbicidal activity, phytotoxicity rating IPOHE ([16]; 250 g ai/ha): 20
- Pre-emerge herbicidal activity, phytotoxicity rating SETVI ([17]; 63 g ai/ha): 0
- Pre-emerge herbicidal activity, phytotoxicity rating SETVI ([17]; 250 g ai/ha): 0
- Pre-emerge herbicidal activity, phytotoxicity rating ECHCG ([18]; 63 g ai/ha): 0
- Pre-emerge herbicidal activity, phytotoxicity rating ECHCG ([18]; 250 g ai/ha): 40
- Post-emerge Herbicidal Activity RICE ([19]; 63 g ai/ha): 20
- Post-emerge Herbicidal Activity RICE ([19]; 250 g ai/ha): 15
- Post-emerge Herbicidal Activity CORN ([20]; 63 g ai/ha): 25
- Post-emerge Herbicidal Activity CORN ([20]; 250 g ai/ha): 20
